Source: patent US10060934B2, “Methods for screening patients for resistance to angioinhibition, treatment and prophylaxis thereof” (NANOPHARMACEUTICALS LLC, priority 2013, dated 2018)

Columns and labels:
[1] = system: chick chorioallantoic membrane (CAM); assay: Chick chorioallantoic membrane (CAM) angiogenesis assay; assay type: in vivo; details: pro-angiogenic factor alone
Protocol: Examples of the CAM assay methodology may include the step of providing chick embryos. In some embodiments, the chick embryos may be approximately 10 days old. The chick embryos may be incubated at approximately 37° C. with approximately 55% relative humidity. A hypodermic needle may be used to make a small hole in the shell concealing an air sac, and a second hole may be made on the broad side of the egg, directly over an avascular portion of the embryonic membrane. A false air sac may be created beneath the second hole by the application of negative pressure at the first hole, causing the CAM to separate from the shell. A window, approximately 1.0 cm^2, in size may be cut in the shell over the CAM with a small-crafts grinding wheel, allowing direct access to the underlying CAM. In some embodiments, a pro-angiogenic agent may be provided to induce new blood vessel branches on the CAM of 10-day-old embryos. In the exemplary embodiment, the pro-angiogenic agents may be the endogenous non-peptide pro-angiogenic hormones supplied in the patient's blood sample. The patient's blood sample may subsequently be introduced into the xenograft having a vasculature system in the CAM. The pro-angiogenic agent, the blood or serum sample of the patient along with one or more anti-angiogenic agents may be applied to a sterile disk and followed by allowing the disks to dry. In some embodiments of the CAM assay, Sterile disks of No. 1 filter paper (Whatman International) may be pretreated with approximately 3 mg/mL cortisone acetate and 1 mmol/L of the patient's blood or serum, along with one or more anti-angiogenic agents and air dried under sterile conditions. The disks may then be suspended in phosphate buffered saline (PBS) and placed on growing CAMs. At approximately the 24 hour mark, a mitogen-activated protein kinase (MAPK) cascade inhibitor such as PD 98059 may also be added to CAMs topically by means of the filter disks. Exemplary embodiments having one or more anti-angiogenic agent, may include two, three, four, five or more anti-angiogenic agents, including at least one thyroid hormone antagonist such as tetrac, triac, or conjugated tetrac or triac. After incubation at 37° C. with 55% relative humidity for 3 days, the CAM tissue directly beneath each filter disk may be resected and treated. The tissues may subsequently be washed approximately three times with PBS, placed in 35-mm Petri dishes (Nalge Nunc), and examined under a stereomicroscope at approximately 50× magnification or more. Digital images of CAM sections exposed to filters may be collected and quantified using a 3-charge-coupled device color video camera system and analyzed with Image-Pro software (Media Cybernetics) or equivalent software. Embodiments of the CAM system may not only index tumor-related angiogenesis, but permits spherical tumor growth of the implanted cells. Spherical growth may be important to the development of a hypoxic cell population that resemble tumor behavior clinically. Aggressive xenograft behavior in the CAM model may include metastasis to the chick embryo in the system.

integrin αvβ3 = integrin αvβ3 (Homo sapiens, UniProt P05106+P06756); details: cited from earlier work
Sequence of integrin αvβ3 (P06756 31-889 limits assumed): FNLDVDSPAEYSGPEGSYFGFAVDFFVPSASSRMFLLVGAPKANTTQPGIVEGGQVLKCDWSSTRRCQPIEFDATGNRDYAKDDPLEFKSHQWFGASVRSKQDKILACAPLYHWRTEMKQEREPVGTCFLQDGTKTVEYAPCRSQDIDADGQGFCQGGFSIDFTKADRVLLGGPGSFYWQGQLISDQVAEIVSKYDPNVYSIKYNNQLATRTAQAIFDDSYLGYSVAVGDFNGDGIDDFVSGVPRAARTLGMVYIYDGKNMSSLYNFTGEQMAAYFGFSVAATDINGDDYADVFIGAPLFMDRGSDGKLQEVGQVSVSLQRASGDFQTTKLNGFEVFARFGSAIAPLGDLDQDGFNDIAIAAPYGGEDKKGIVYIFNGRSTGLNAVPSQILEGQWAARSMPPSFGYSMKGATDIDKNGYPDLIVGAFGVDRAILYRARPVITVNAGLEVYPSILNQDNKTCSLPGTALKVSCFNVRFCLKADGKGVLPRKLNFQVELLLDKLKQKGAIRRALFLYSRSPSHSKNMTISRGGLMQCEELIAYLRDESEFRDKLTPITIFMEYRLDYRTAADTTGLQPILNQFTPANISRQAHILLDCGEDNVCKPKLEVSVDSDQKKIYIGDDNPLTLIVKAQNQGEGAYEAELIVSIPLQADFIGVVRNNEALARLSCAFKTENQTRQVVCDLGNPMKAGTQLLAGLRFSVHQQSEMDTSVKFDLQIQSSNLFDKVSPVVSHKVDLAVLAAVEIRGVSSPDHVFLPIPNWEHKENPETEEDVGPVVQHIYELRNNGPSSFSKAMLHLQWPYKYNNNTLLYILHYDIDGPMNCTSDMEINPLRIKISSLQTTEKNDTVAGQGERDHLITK
Sequence of integrin αvβ3 (P06756 891-1048 partner limits assumed): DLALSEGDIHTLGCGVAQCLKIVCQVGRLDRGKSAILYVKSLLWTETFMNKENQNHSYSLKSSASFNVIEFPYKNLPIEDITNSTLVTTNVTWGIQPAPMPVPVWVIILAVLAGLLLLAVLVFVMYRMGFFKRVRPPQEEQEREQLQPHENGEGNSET
Sequence of integrin αvβ3 (P05106 27-788): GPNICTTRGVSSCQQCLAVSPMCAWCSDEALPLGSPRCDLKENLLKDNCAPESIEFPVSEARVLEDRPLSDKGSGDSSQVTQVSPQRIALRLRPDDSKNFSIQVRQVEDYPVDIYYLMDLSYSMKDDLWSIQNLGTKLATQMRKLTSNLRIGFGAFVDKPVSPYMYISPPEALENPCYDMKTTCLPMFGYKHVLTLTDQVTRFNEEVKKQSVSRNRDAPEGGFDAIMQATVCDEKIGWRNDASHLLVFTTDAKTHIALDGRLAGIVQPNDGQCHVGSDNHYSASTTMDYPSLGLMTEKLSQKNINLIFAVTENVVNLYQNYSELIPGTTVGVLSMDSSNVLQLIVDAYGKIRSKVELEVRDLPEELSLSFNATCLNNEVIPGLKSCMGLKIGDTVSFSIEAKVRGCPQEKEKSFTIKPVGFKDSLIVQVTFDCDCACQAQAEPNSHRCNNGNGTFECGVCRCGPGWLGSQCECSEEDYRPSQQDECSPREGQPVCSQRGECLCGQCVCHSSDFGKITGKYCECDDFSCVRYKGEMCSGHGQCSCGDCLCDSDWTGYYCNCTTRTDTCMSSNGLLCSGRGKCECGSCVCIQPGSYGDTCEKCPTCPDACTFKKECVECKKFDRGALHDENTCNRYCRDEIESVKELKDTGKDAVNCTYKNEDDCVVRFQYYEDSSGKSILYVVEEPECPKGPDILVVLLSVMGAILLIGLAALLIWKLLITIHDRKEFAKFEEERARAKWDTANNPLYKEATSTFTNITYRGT

[2] = system: basic fibroblast growth factor (bFGF, FGF2), vascular endothelial growth factor (VEGF); details: in the absence of thyroid hormone; cited from earlier work
glioma cells = details: in vitro; cited from earlier work
[3] = system: human breast cancer cells; details: in vitro; cited from earlier work

| Molecule | Branch points ± SEM [1] | also measured |
| --- | --- | --- |
| N[C@@H](Cc1cc(I)c(Oc2ccc(O)c(I)c2)c(I)c1)C(=O)O [T3, 3,5,3′-triiodo-L-thyronine] | 186.8 ± 16.4 |  |
| N[C@@H](Cc1cc(I)c(Oc2cc(I)c(O)c(I)c2)c(I)c1)C(=O)O [T4, L-thyroxine] | 119.2 ± 15.6 |  |
| Angiotensin II (DRVYIHPF; Angiotensin-2; UniProt P01019 25-32, looked up) [small molecule that supports neovascularization; pro-angiogenic factor in the CAM assay] | 103.2 ± 25.9 |  |
| Tetraiodothyroacetic acid [tetrac] |  | agonist activity at the integrin (integrin αvβ3): no agonist activity; binding of T4 and T3 to the integrin (integrin αvβ3): inhibits binding; angiogenic activity of bFGF, VEGF and other pro-angiogenic factors [2]: blocks the angiogenic activity; growth of glioma cells (glioma cells): arrest growth; growth of human breast cancer cells [3]: arrest growth |
| VEGF | 182.4 ± 8.4 |  |
| bFGF: basic fibroblast growth factor | 184.6 ± 18.5 |  |
